Results on one compound are retold here after article PMC11984586, “A novel spider toxin as a selective antagonist of the Kv1 subfamily of voltage-gated potassium channels through gating modulation” (The Journal of Biological Chemistry, 2025).

Bridge positions count the residues as written; N and C are the ends. Peptide text beside a SMILES is read from it.

Holding throughout (assay type): cell-based
The target of experiment [1] is T1, Kv1.1/1.3 S5-S6 chimeric channel (Homo sapiens, UniProt Q09470, A352P/E350D/E351D/E353T/H355G/S369T/Y379H).
T1 construct: expressed in transfected cells; host or cells: CHO-K1
The experiment can be described thus: Whole-cell patch clamp, chimeric channel. Particulars: +30 mV, mean ± SD. The source says:
To investigate the structural determinants underlying the differential regulatory effects of MrVIII on Kv1 channels, we employed a chimeric channel strategy. Using Kv1.3 as the template, the S1-S2, S3-S4, and S5-S6 transmembrane helices and their respective linkers from Kv1.1 were inserted to generate chimeras, generating the Kv1.3/1.1 S1-S2, Kv1.3/1.1 S3-S4, and Kv1.3/1.1 S5-S6 chimeric channels. […] These findings indicate that the S3-S4 is the key determinant for the differential inhibition of Kv1.1 and Kv1.3 by MrVIII. To further validate this conclusion, we constructed a reverse chimeric channel using Kv1.1 as the template, inserting the corresponding regions from Kv1.3 into Kv1.1. […] This finding more directly illustrates the exchange of the channel's voltage-dependence phenotype in toxin inhibition by swapping this S3-S4 between Kv1.1 and Kv1.3. […] In addition to confirming the differential role of S3-S4 between Kv1.1 and Kv1.3, we also substituted the S3-S4 of Kv1.4 and Kv1.7 into Kv1.3 to analyze MrVIII's inhibition profile. […] The IC50 for Kv1.3/1.7 S3-S4 could not be fitted, and inhi%(495 ms) was only 23.1 ± 10.0% (Fig. S2, E and F). […]
(§1) CHO-K1 cells were selected for expressing Kv channels due to their lack of endogenous Kv channels, while HEK293 or ND7/23 cells were used for Nav and Cav channel expression. […] After 4 to 6 h transfection, cells were seeded onto poly-lysine–coated coverslips, and 24 to 36 h later, transfected cells were ready for patch-clamp analysis. […]
For Kv current recordings, the bath solution contained (in mM) the following: 140 NaCl, 5 KCl, 1 MgCl2, 2 CaCl2, 10 glucose, and 10 Hepes (pH 7.3, adjusted with NaOH), and the pipette solution contained (in mM) the following: 140 KCl, 2.5 MgCl2, 11 EGTA, and 10 Hepes (pH 7.3, adjusted with KOH). […] Whole cell conductance (G) at each depolarizing voltage (V) was determined using the equation: G = I/(V−Vrev), where I is the current amplitude, and Vrev is the reversal potential. […]

Another experiment deals with T2, Kv1.3/Q355E (Homo sapiens, UniProt P22001, Q355E).
T2 construct: expressed in transfected cells; host or cells: CHO-K1
The experiment can be described thus: Whole-cell patch clamp, Kv1.3 point mutant. The following applies: +30 mV stimulus, mean ± SD, n = 5, read-out: IC50, Kv1.3/Q355E current.
Description: (§2) In contrast, differences at positions 347, 355, and 358 between Kv1.3 and Kv1.1 prompted further analysis. To explore whether these discrepancies influence peptide-mediated inhibition, we substituted these residues in Kv1.3 with their homologous counterparts in Kv1.1 and assessed the MrVIII's inhibitory efficacy on these single-point mutants. […] To further investigate this, we introduced double adjacent mutations around Q355 and M358 in Kv1.3 to explore potential synergistic effects on MrVIII's inhibitory activity.
(§3) The cDNA of hKv1.1, hKv1.2, hKv1.3, rKv1.4, hKv1.5, mKv1.6, and hKv1.7 were subcloned into mammalian expression vectors pcDNA3.1 or pCMV-blank vectors, as well as other plasmids described previously ([35]). Channel mutants were generated by site-directed mutations. Briefly, the parental channel plasmid was amplified using a pair of oppositely directed primers harboring the designed mutation site, with KOD Fx (TOYOBO Co, Ltd). The resulting PCR mix was treated with FastDigest DpnI (Thermo Fisher Scientific) to remove the methylated template. Ten microliters of the digested product was then used to transform 100 μl E. coli DH5α competent cells. […]
as §1
(§4) For Kv current recordings, the bath solution contained (in mM) the following: 140 NaCl, 5 KCl, 1 MgCl2, 2 CaCl2, 10 glucose, and 10 Hepes (pH 7.3, adjusted with NaOH), and the pipette solution contained (in mM) the following: 140 KCl, 2.5 MgCl2, 11 EGTA, and 10 Hepes (pH 7.3, adjusted with KOH). […] Whole cell conductance (G) at each depolarizing voltage (V) was determined using the equation: G = I/(V−Vrev), where I is the current amplitude, and Vrev is the reversal potential. […] The steady-state fast inactivation of Kv1.3 was measured using a two-pulses protocol. […]

The target in the next experiment is T3, Kv1.3/L347I (Homo sapiens, UniProt P22001, L347I).
T3 construct: expressed in transfected cells; host or cells: CHO-K1
The experiment can be described thus: Whole-cell patch clamp, Kv1.3 point mutant. Particulars: +30 mV stimulus, mean ± SD, n = 5, read-out: IC50, Kv1.3/L347I current.
Description: as §2, §3, §1, §4
Background: Patch clamp records ionic current or voltage across a cell membrane.

A further experiment has as its target T4, Kv1.3/M358T (Homo sapiens, UniProt P22001, M358T).
T4 construct: expressed in transfected cells; host or cells: CHO-K1
The experiment can be described thus: Whole-cell patch clamp, Kv1.3 point mutant. The following applies: +30 mV stimulus, mean ± SD, n = 5, read-out: IC50, Kv1.3/M358T current.
Description: as §2, §3, §1, §4

T1 sequence (Q09470 whole entry E350D/E351D/A352P/E353T/H355G/S369T/Y379H): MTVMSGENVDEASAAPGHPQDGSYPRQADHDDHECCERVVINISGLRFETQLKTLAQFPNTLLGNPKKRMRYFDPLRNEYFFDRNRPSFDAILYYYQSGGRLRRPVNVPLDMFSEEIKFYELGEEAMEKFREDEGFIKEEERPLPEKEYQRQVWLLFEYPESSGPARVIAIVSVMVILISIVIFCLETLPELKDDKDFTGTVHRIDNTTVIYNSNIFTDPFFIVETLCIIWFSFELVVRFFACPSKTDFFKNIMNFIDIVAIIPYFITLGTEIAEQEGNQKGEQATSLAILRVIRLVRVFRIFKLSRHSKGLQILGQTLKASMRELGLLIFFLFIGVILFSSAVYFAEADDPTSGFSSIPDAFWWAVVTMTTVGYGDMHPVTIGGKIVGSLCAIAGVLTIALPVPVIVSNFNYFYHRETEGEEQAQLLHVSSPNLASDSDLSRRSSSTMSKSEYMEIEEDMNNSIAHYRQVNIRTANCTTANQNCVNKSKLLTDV
T4 sequence (P22001 whole entry M358T): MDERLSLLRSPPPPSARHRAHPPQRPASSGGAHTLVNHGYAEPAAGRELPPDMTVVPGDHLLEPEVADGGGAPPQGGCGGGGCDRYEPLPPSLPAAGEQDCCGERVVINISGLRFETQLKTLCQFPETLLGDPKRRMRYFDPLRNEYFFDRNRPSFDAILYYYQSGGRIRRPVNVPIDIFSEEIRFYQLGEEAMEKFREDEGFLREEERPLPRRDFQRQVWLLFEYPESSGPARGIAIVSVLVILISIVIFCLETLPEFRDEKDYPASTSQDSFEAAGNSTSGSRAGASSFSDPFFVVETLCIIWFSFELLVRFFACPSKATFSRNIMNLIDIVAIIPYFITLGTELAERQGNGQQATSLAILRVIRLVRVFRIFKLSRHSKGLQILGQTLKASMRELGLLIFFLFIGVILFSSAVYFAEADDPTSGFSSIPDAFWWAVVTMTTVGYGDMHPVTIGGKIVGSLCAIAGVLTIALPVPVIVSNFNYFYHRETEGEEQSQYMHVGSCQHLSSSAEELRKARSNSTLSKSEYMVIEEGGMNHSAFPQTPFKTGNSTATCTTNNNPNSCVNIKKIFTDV
T3 sequence (P22001 whole entry L347I): as the sequence (P22001 whole entry M358T) above, with L347I, T358M counted along it
T2 sequence (P22001 whole entry Q355E): as the sequence (P22001 whole entry M358T) above, with Q355E, T358M counted along it

On to `CC[C@H](C)[C@@H]1NC(=O)[C@H](Cc2ccc(O)cc2)NC(=O)[C@H](CCC(N)=O)NC(=O)[C@@H]2CCCN2C(=O)[C@@H]2CSSC[C@H](NC(=O)[C@H](C)NC(=O)[C@H](CO)NC(=O)[C@H](CCC(=O)O)NC(=O)[C@H](CCC(=O)O)NC(=O)[C@@H](N)[C@@H](C)O)C(=O)NCC(=O)NCC(=O)N[C@@H](Cc3ccccc3)C(=O)N[C@@H](CC(N)=O)C(=O)N[C@@H](C)C(=O)N[C@@H](CCCNC(=N)N)C(=O)N[C@H]3CSSC[C@H](NC1=O)C(=O)N[C@@H](CCCCN)C(=O)NCC(=O)N[C@@H](Cc1c[nH]c4ccccc14)C(=O)N[C@@H](CCCNC(=N)N)C(=O)N[C@@H]([C@@H](C)O)C(=O)N[C@@H](CCCCN)C(=O)N[C@@H](CCCNC(=N)N)C(=O)N[C@H](C(=O)N[C@@H](CC(C)C)C(=O)N[C@@H](CC(N)=O)C(=O)N1CCC[C@H]1C(=O)O)CSSC[C@H](NC(=O)[C@H](CCCCN)NC(=O)[C@H](Cc1c[nH]cn1)NC(=O)[C@H](CC(C)C)NC(=O)[C@@H]1CCCN1C3=O)C(=O)N2` [MrVIII] (H-TEESACGGFNARCPLHKCCPQYICKGWRTKRCLNP-OH; disulfide 6-19, 13-24, 18-32; N-terminus and C-terminus assumed), for which the IC50 in experiment [1] (current at 50 ms, n = 4-5) was determined as 48.9 ± 26.6 nM; on Kv1.3/Q355E, 14.2 ± 7.2 nM; at Kv1.3/L347I it was 14.2 ± 0.8 nM; on Kv1.3/M358T, 143 ± 33 nM. Besides, the “inhi%(495 ms), Kv1.1/1.3 S5-S6 current” value in experiment [1] (current at 495 ms) is 50.1 ± 19.9%.
